Measured values reported in patent US20190350964A1, “ANTI-CANCER COMPOUNDS AND USES THEREOF” (NATIONAL UNIVERSITY OF SINGAPORE, priority 2016, published 2019).

Assays:
[1] = molecular target: T1, Retinal rod rhodopsin-sensitive cGMP 3′,5′-cyclic phosphodiesterase subunit delta (Homo sapiens, UniProt O43924); test: MS-CETSA in normal BJ cell lysates; assay type: binding; details: lysate, 100 μM compound
T1 construct: After collecting data covering >8,000 proteins in lysates of normal BJ cells; endogenous in cells; host or cells: normal BJ cells, lysate
T1 sequence (O43924 whole entry): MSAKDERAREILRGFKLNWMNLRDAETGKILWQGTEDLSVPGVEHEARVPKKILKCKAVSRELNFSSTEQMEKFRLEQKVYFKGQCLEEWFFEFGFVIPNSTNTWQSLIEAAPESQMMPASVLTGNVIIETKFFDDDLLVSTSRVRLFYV
Experimental: (§1) Target identification was performed by cellular thermal shift assay (CETSA) coupled with quantitative mass spectrometry. In brief, normal BJ cells were lysed by combination of freeze/thaw and mechanical shearing with needle in buffer [50 mM HEPES (pH 7.5), 5 mM β-glycerophosphate, 0.1 mM Sodium Vanadate, 10 mM MgCl2, 1 mM TCEP and 1× Protease inhibitor Cocktail]. The cell debris was removed by centrifugation at 20,000 g for 20 min at 4° C. […] Each lysate was divided into 10 aliquots for heat treatment at the respective temperatures for 3 min in a 96-well thermocycler, followed by 3 min at 4° C. The lysate was centrifuged at 20,000 g for 20 min at 4° C. and the supernatant was transferred into microtubes for MS sample preparation.
(§2) After lysis, at least 100 μg of the protein (measured with a BCA assay) was subjected to reduction, denaturation and alkylation. Samples were subsequently incubated with sequencing grade LysC (Wako) and trypsin (Promega) for digestion overnight at 37° C. The digested samples were dried using a centrifugal vacuum evaporator, solubilized in 100 mM TEAB. […]
(§3) Proteins for which a low temperature plateau was not present were deleted using a cut off >0.85 for the average reading of the first three temperature points (in our experience proteins melting already at −37° C. are more prone to give false positives in a shift analysis).

[2] = molecular target: T2, MIP18 family protein FAM96A (Homo sapiens, UniProt Q9H5X1); test: MS-CETSA in normal BJ cell lysates; assay type: binding; details: lysate, 100 μM compound
T2 construct: After collecting data covering >8,000 proteins in lysates of normal BJ cells; endogenous in cells; host or cells: normal BJ cells, lysate
T2 sequence (Q9H5X1 whole entry): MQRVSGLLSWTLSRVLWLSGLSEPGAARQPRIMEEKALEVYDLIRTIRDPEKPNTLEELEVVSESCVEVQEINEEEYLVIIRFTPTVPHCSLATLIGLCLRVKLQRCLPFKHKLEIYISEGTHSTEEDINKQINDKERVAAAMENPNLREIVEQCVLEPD
Experimental: as §1, §2, §3

ARPE-19 = test: MTT cytotoxicity test (GI50); assay type: cell-based; details: Homo sapiens; ARPE-19, normal, retina; MTT 72 h
SNU-16 = test: MTT cytotoxicity test (GI50); assay type: cell-based; details: Homo sapiens; SNU-16, cancer, gastric; MTT 72 h
HGC27 = test: MTT cytotoxicity test (GI50); assay type: cell-based; details: Homo sapiens, HGC-27; HGC27, cancer, gastric; MTT 72 h
HT29 = test: MTT cytotoxicity test (GI50); assay type: cell-based; details: Homo sapiens, HT-29; HT29, cancer, colon; MTT 72 h
MDA-MB-231 = test: MTT cytotoxicity test (GI50); assay type: cell-based; details: Homo sapiens; MDA-MB-231, cancer, breast; MTT 72 h
[3] = test system: MDA-MB-231 human breast tumor cells; test: MDA-MB-231 tumor xenograft in nude mice; assay type: in vivo, mouse; details: a131 20 mg/kg, b5 40-80 mg/kg, PO or IP twice daily, 15 days
Excerpt: BALB/c athymic female nude mice (nu/nu, 5-7 weeks) (InVivos) were kept under specific pathogen-free (SPF) conditions. The care and use of mice was approved by the Duke-NUS IACUC in accordance with protocol 2015/SHS/1030. HCT15 human colon cancer cells (5×10^6) or MDA-MB-231 human breast cancer cells (4×10^6 with Matrigel) were subcutaneously injected into the flanks of mice. When the mean tumor volume reached 100-300 mm^3 (Day 1), the mice were randomly divided into experimental groups of 6 mice by an algorithm that moves animals around to achieve the best case distribution to assure that each treatment group has similar mean tumor burden and standard deviation. No statistical method was used to predetermine sample size. […] Tumor dimensions were measured using calipers, and tumor volume (mm^3) was calculated using the formula width^2×length/2 in a blinded fashion. […] Images were acquired in 3D-SIM mode using a super resolution microscope (Nikon), and the number of cells with either 2 or mitotic-spindles was quantified (n>50 cells per section, 6-7 sections per treatment). […] For the DAB image, a fixed threshold was used, watershed applied and the number of DAB stained nuclei counted. In all cases, no data or animals were excluded and results are expressed as mean and standard deviation of the mean.

Question: Which ED score [1] does the source give for N#C/C(=C\c1cccc2cnccc12)c1c[nH]c2ccccc12 [a131, (Z)-2-(1H-indol-3-yl)-3-(5-isoquinolyl)prop-2-enenitrile] here?
Answer: 0.3092

Question: What about the ΔTm at 100 µM ([1]; read-out: mean Delta Tm) of the same compound?
Answer: 3.02 °C

Question: What about the ED score [2] of the same compound?
Answer: 0.291

Question: What about the ΔTm at 100 µM ([2]; read-out: mean Delta Tm) of the same compound?
Answer: 2.17 °C

Question: What about the GI50 (ARPE-19) of the same compound?
Answer: > 10 µM

Question: And the GI50 (SNU-16)?
Answer: 1 µM

Question: What about the GI50 (HGC27) of the same compound?
Answer: 1.2 µM

Question: And the GI50 (HT29)?
Answer: 0.9 µM

Question: What about the GI50 (MDA-MB-231) of the same compound?
Answer: 1.1 µM

Question: What about the “antitumor activity (tumor volume)” value [3] of the same compound?
Answer: marked antitumor efficacies
